Laboratory results: PubChem BioAssay (NCI)
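How tested: cells in 96-well plates exposed to compound for 48 hours at five concentrations. TGI denotes the concentration required for complete inhibition of growth.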

Tests used:
Test in all cases: inhibition of tumour cell growth, NCI panel, 48 h
786-0 renal = system: 786-0 renal
A498 renal = system: A498 renal
A549 NSCLC = system: A549 NSCLC
ACHN renal = system: ACHN renal
BT-549 breast = system: BT-549 breast
CAKI-1 renal = system: CAKI-1 renal
CCRF-CEM leukemia = system: CCRF-CEM leukemia
COLO 205 colon = system: COLO 205 colon
DU-145 prostate = system: DU-145 prostate
EKVX NSCLC = system: EKVX NSCLC
HCC-2998 colon = system: HCC-2998 colon
HCT-116 colon = system: HCT-116 colon
HCT-15 colon = system: HCT-15 colon
HL-60(TB) leukemia = system: HL-60(TB) leukemia
HOP-62 NSCLC = system: HOP-62 NSCLC
HOP-92 NSCLC = system: HOP-92 NSCLC
HS 578T breast = system: HS 578T breast
HT29 colon = system: HT29 colon
IGROV1 ovarian = system: IGROV1 ovarian
K-562 leukemia = system: K-562 leukemia
KM12 colon = system: KM12 colon
M14 melanoma = system: M14 melanoma
MALME-3M melanoma = system: MALME-3M melanoma
MCF7 breast = system: MCF7 breast
MDA-MB-231 breast = system: MDA-MB-231 breast
MDA-MB-435 = system: MDA-MB-435
MDA-N = system: MDA-N
MOLT-4 leukemia = system: MOLT-4 leukemia
NCI-H226 lung = system: NCI-H226 lung
NCI-H23 lung = system: NCI-H23 lung
NCI-H460 lung = system: NCI-H460 lung
NCI/ADR-RES ovarian = system: NCI/ADR-RES ovarian
OVCAR-3 ovarian = system: OVCAR-3 ovarian
OVCAR-4 ovarian = system: OVCAR-4 ovarian
OVCAR-5 ovarian = system: OVCAR-5 ovarian
OVCAR-8 ovarian = system: OVCAR-8 ovarian
PC-3 prostate = system: PC-3 prostate
RPMI-8226 leukemia = system: RPMI-8226 leukemia
RXF 393 renal = system: RXF 393 renal
SF-268 CNS = system: SF-268 CNS
SF-295 CNS = system: SF-295 CNS
SF-539 CNS = system: SF-539 CNS
SK-MEL-2 melanoma = system: SK-MEL-2 melanoma
SK-MEL-28 melanoma = system: SK-MEL-28 melanoma
SK-MEL-5 melanoma = system: SK-MEL-5 melanoma
SK-OV-3 ovarian = system: SK-OV-3 ovarian
SN12C renal = system: SN12C renal
SNB-19 CNS = system: SNB-19 CNS
SR leukemia = system: SR leukemia
TK-10 renal = system: TK-10 renal
U251 CNS = system: U251 CNS
UACC-257 melanoma = system: UACC-257 melanoma
UACC-62 melanoma = system: UACC-62 melanoma
UO-31 renal = system: UO-31 renal
LOX IMVI melanoma = system: LOX IMVI melanoma
SNB-75 CNS = system: SNB-75 CNS
SW-620 colon = system: SW-620 colon
T-47D breast = system: T-47D breast

Cn1c(=O)c2c(nc(-n3nc(-c4ccc(Cl)cc4)cc3N)n2C)n(C)c1=O
TGI (786-0 renal): > 100 µM
TGI (A498 renal): > 100 µM
TGI (A549 NSCLC): > 100 µM
TGI (ACHN renal): > 100 µM
TGI (BT-549 breast): > 100 µM
TGI (CAKI-1 renal): > 100 µM
TGI (CCRF-CEM leukemia): > 100 µM
TGI (COLO 205 colon): > 100 µM
TGI (DU-145 prostate): > 100 µM
TGI (EKVX NSCLC): > 100 µM
TGI (HCC-2998 colon): > 100 µM
TGI (HCT-116 colon): > 100 µM
TGI (HCT-15 colon): > 100 µM
TGI (HL-60(TB) leukemia): > 100 µM
TGI (HOP-62 NSCLC): 81.9 µM
TGI (HOP-92 NSCLC): > 100 µM
TGI (HS 578T breast): > 100 µM
TGI (HT29 colon): > 100 µM
TGI (IGROV1 ovarian): > 100 µM
TGI (K-562 leukemia): > 100 µM
TGI (KM12 colon): > 100 µM
TGI (M14 melanoma): > 100 µM
TGI (MALME-3M melanoma): 83.2 µM
TGI (MCF7 breast): > 100 µM
TGI (MDA-MB-231 breast): > 100 µM
TGI (MDA-MB-435): > 100 µM
TGI (MDA-N): > 100 µM
TGI (MOLT-4 leukemia): > 100 µM
TGI (NCI-H226 lung): > 100 µM
TGI (NCI-H23 lung): > 100 µM
TGI (NCI-H460 lung): > 100 µM
TGI (NCI/ADR-RES ovarian): > 100 µM
TGI (OVCAR-3 ovarian): > 100 µM
TGI (OVCAR-4 ovarian): > 100 µM
TGI (OVCAR-5 ovarian): > 100 µM
TGI (OVCAR-8 ovarian): > 100 µM
TGI (PC-3 prostate): > 100 µM
TGI (RPMI-8226 leukemia): > 100 µM
TGI (RXF 393 renal): > 100 µM
TGI (SF-268 CNS): > 100 µM
TGI (SF-295 CNS): > 100 µM
TGI (SF-539 CNS): 69.4 µM
TGI (SK-MEL-2 melanoma): > 100 µM
TGI (SK-MEL-28 melanoma): > 100 µM
TGI (SK-MEL-5 melanoma): > 100 µM
TGI (SK-OV-3 ovarian): 91 µM
TGI (SN12C renal): > 100 µM
TGI (SNB-19 CNS): > 100 µM
TGI (SR leukemia): > 100 µM
TGI (TK-10 renal): > 100 µM
TGI (U251 CNS): > 100 µM
TGI (UACC-257 melanoma): > 100 µM
TGI (UACC-62 melanoma): > 100 µM
TGI (UO-31 renal): > 100 µM

COc1cc(/C=C/C(=O)c2ccc(NS(=O)(=O)c3cc([N+](=O)[O-])ccc3C)cc2)cc(OC)c1OC
TGI (786-0 renal): 7.14 µM
TGI (A549 NSCLC): 18.6 µM
TGI (ACHN renal): 15.9 µM
TGI (BT-549 breast): 14.4 µM
TGI (CAKI-1 renal): 17.3 µM
TGI (CCRF-CEM leukemia): 7.48 µM
TGI (COLO 205 colon): 14.9 µM
TGI (DU-145 prostate): 10.2 µM
TGI (EKVX NSCLC): 17 µM
TGI (HCT-116 colon): 6.49 µM
TGI (HCT-15 colon): 13.4 µM
TGI (HL-60(TB) leukemia): 11.1 µM
TGI (HOP-62 NSCLC): 11.4 µM
TGI (HOP-92 NSCLC): 11.5 µM
TGI (HT29 colon): 14.4 µM
TGI (IGROV1 ovarian): 17.1 µM
TGI (K-562 leukemia): 10.9 µM
TGI (KM12 colon): 8.02 µM
TGI (LOX IMVI melanoma): 9.36 µM
TGI (M14 melanoma): 15.3 µM
TGI (MCF7 breast): 9.72 µM
TGI (MDA-MB-231 breast): 7.39 µM
TGI (MDA-MB-435): 16.3 µM
TGI (MDA-N): 13 µM
TGI (MOLT-4 leukemia): 6.58 µM
TGI (NCI-H226 lung): 8.74 µM
TGI (NCI-H23 lung): 11 µM
TGI (NCI/ADR-RES ovarian): > 100 µM
TGI (OVCAR-3 ovarian): 11.5 µM
TGI (OVCAR-4 ovarian): 13.5 µM
TGI (OVCAR-5 ovarian): 11.8 µM
TGI (OVCAR-8 ovarian): 7.97 µM
TGI (PC-3 prostate): 19.5 µM
TGI (RPMI-8226 leukemia): 6.21 µM
TGI (RXF 393 renal): 11.1 µM
TGI (SF-295 CNS): 16.4 µM
TGI (SF-539 CNS): 6.3 µM
TGI (SK-MEL-2 melanoma): 8.47 µM
TGI (SK-MEL-28 melanoma): 25 µM
TGI (SK-MEL-5 melanoma): 15.4 µM
TGI (SK-OV-3 ovarian): 15.4 µM
TGI (SN12C renal): 4.52 µM
TGI (SNB-19 CNS): 14.1 µM
TGI (SNB-75 CNS): 14.2 µM
TGI (SR leukemia): 5.74 µM
TGI (SW-620 colon): 25.5 µM
TGI (T-47D breast): 38.6 µM
TGI (TK-10 renal): 13.9 µM
TGI (U251 CNS): 13.7 µM
TGI (UACC-257 melanoma): 21.9 µM
TGI (UO-31 renal): 30.4 µM
